Measured values: patent US20250188043A1 (ReproNovo SA, priority 2023, published 2025)
Values after ≈ are worked out from the molar mass of the structure shown.

Key:
[1] = Metabolic stability in rat liver microsomes; type: in vitro ADME
[2] = molecular target: T1, CYP2A6 (Homo sapiens, UniProt P11509); assay: CYP inhibition, pooled human liver microsomes, probe substrates; type: in vitro ADME
T1 construct: assessed by pooled human liver microsomes using enzyme selective probe substrates; from tissue; host or cells: pooled human liver microsomes
T1 sequence (P11509 1-494): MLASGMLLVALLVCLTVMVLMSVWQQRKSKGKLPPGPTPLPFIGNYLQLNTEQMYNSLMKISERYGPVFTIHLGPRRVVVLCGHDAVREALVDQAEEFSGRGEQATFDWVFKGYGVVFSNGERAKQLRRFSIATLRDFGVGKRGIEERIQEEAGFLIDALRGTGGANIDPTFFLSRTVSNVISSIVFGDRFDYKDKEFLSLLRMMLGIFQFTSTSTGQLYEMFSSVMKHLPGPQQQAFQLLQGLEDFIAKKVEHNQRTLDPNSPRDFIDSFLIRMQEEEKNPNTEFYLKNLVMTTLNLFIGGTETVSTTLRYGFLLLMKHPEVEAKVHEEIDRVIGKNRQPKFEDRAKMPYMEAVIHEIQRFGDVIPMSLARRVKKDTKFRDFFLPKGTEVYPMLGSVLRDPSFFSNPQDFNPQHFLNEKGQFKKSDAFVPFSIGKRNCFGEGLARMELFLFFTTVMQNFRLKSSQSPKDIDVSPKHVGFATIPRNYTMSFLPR

[3] = molecular target: T2, CYP2E1 (Homo sapiens, UniProt P05181); assay: as above; type: in vitro ADME; conditions: up to 100 μM
T2 construct: assessed by pooled human liver microsomes using enzyme selective probe substrates; from tissue; host or cells: pooled human liver microsomes
T2 sequence (P05181 whole entry): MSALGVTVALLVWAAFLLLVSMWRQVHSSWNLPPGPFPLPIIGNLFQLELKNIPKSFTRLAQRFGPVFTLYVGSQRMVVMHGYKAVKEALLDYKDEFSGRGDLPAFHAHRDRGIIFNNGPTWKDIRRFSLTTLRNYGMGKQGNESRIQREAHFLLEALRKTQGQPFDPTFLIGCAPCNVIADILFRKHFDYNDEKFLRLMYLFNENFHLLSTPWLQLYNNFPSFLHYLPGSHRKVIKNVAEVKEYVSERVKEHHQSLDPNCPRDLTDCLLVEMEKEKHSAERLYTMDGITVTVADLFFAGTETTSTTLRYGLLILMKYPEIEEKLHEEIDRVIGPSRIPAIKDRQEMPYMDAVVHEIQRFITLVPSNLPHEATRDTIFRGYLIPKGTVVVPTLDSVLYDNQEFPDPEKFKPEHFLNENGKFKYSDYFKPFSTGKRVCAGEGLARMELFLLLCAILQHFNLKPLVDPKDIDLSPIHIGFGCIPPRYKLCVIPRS

[4] = molecular target: T3, CYP2C19 (Homo sapiens, UniProt P33261); assay: as above; type: in vitro ADME; conditions: up to 100 μM
T3 construct: assessed by pooled human liver microsomes using enzyme selective probe substrates; from tissue; host or cells: pooled human liver microsomes
T3 sequence (P33261 whole entry): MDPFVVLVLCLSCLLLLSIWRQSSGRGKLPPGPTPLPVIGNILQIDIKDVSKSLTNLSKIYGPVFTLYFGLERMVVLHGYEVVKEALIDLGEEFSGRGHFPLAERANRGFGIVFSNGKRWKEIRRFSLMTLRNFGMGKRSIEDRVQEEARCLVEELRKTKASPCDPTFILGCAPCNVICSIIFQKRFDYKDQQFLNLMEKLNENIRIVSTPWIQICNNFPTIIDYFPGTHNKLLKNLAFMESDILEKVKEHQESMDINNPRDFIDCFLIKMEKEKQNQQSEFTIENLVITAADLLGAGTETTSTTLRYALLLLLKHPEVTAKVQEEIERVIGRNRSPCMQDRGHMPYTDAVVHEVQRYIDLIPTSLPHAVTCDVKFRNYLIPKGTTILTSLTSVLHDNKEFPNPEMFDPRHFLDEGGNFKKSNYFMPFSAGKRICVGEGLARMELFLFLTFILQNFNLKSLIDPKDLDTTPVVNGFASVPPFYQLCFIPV

[5] = system: Caco-2 cell model; assay: Cellular transport by Caco-2 assay; type: in vitro ADME, humans
Source text: (§1) The ratio of B-A/A-B is 0.43.

[6] = Cellular transport by Caco-2 assay; type: in vitro ADME, humans; conditions: human
Source text: as §1

[7] = molecular target: T4, CYP1A2 (Homo sapiens, UniProt P05177); assay: CYP inhibition, pooled human liver microsomes, probe substrates; type: in vitro ADME; conditions: up to 100 μM
T4 construct: assessed by pooled human liver microsomes using enzyme selective probe substrates; from tissue; host or cells: pooled human liver microsomes
T4 sequence (P05177 1-516): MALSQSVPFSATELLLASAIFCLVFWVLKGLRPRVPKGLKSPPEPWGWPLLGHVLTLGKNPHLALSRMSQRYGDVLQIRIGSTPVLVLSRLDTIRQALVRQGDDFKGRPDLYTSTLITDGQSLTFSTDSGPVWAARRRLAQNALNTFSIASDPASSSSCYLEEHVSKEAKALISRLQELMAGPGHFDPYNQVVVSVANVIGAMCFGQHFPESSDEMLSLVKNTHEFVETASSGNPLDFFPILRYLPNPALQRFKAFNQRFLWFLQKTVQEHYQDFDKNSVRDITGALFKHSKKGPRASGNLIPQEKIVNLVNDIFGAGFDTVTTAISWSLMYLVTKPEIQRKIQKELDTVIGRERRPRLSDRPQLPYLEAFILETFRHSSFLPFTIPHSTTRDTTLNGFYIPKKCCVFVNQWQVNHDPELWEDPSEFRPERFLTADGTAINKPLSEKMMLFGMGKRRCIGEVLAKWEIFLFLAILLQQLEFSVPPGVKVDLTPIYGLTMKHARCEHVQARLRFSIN

[8] = Pharmacokinetics in naïve female mice; conditions: mouse, in vivo, NMP-PEG300 10/90
[9] = Kinetic solubility; type: physicochemical; conditions: aqueous buffer, kinetic from dmso stock; room temperature, aqueous solutions between pH 1.0 and pH 6.8
[10] = Chemical stability stress test: bulk solid and suspensions in buffer; type: physicochemical; conditions: for Leflutrozole Peak Area, After: 1 week; for degradation: all suspensions tested
Experimental: The stress test conditions were bulk crystalline solid at room temperature (RT, about 25° C.) and 80° C. for one week or storage in buffer solutions of different pH (1, 4, and 7.4) at RT or at 80° C. for one week. Additional experiments were performed at 50° C. if degradation by more than 5% was observed during the analogous 80° C. experiment.

## N#Cc1ccc(C(F)(c2ccc(C#N)cc2)n2cncn2)cc1 [leflutrozole, 4-[(4-cyanophenyl)-fluoro-(1,2,4-triazol-1-yl)methyl]benzonitrile]
[1]
  CLint scaled: < 4.6 mL/min/kg
  half-life: > 5 h
[2]
  Ki: 2.56 µM
[3]
  IC50: > 50 µM
[4]
  IC50: > 50 µM
[5]
  apparent permeability (in words): very high apparent permeability
  contribution of efflux transporters such as P-glycoprotein: no detectable contribution of efflux transporters
[6]; read-out: apparent permeability, apical to basolateral
  Papp A→B: 54.5 ×10⁻⁶ cm/s
[6]; read-out: apparent permeability, basolateral to apical
  Papp B→A: 23.2 ×10⁻⁶ cm/s
[7]
  IC50: > 50 µM
[8]; iv, 1 mg/kg i.v.
  AUC(0-inf): 34 µM·h
  AUC(0-t): 21 µM·h
  clearance: 1.5 mL/min
  half-life: 13 h
[8]; po, 2.5 mg/kg p.o.
  AUC(0-inf): 70.2 µM·h
  AUC(0-t): 61.7 µM·h
  Cmax: 2930 nM
  half-life: 13 h

## N#Cc1ccc(C(F)(c2ccc(C#N)cc2)n2cncn2)cc1 [Form A leflutrozole, 4-[(4-cyanophenyl)-fluoro-(1,2,4-triazol-1-yl)methyl]benzonitrile]
[9]
  solubility kinetic: ~0.0607 µg/mL (≈ 0.2 µM)
[10]; Bulk Solid, RT
  Leflutrozole Peak Area, After: 99.6% peak area
[10]; Bulk solid, 80° C., listed as Form A of leflutrozole
  Leflutrozole Peak Area, After: 99.7 % peak area
[10]; Bulk solid, 80° C., listed as crystalline Form A leflutrozole
  Leflutrozole Peak Area, After: 99.7% peak area
[10]; Suspension in buffer, pH 1, 50° C.
  Leflutrozole Peak Area, After: 79.8% peak area
[10]; Suspension in buffer, pH 1, 80° C.
  Leflutrozole Peak Area, After: 18.5% peak area
[10]; Suspension in buffer, pH 4, 50° C.
  Leflutrozole Peak Area, After: 94.3% peak area
[10]; Suspension in buffer, pH 4, 80° C.
  Leflutrozole Peak Area, After: 0.6% peak area
[10]; Suspension in buffer, pH 7.4, 50° C.
  Leflutrozole Peak Area, After: 95.5% peak area
[10]; Suspension in buffer, pH 7.4, 80° C.
  Leflutrozole Peak Area, After: 1.1% peak area
[10]; 1 week at 50° C.
  degradation: > 4%
[10]; 80° C. for 1 week, irrespective of buffer pH
  degradation: > 80%
[10]; before stress test
  Leflutrozole Peak Area, Before: 99.7% peak area
[10]; sample stored at pH 7.4 and 80° C., LC-MS
  major decomposition product: compound of Formula (IV)
